Tests used:
PTPN9 = molecular target: T1, PTPN9 (Homo sapiens, UniProt P43378); test: PTPN9 enzyme inhibition with DiFMUP substrate; assay type: biochemical; details: DiFMUP 220 µM, PTPN9 0.15 nM; NA: no activity
T1 construct: made in house; host or cells: Escherichia coli Rosetta (DE3)
T1 sequence (P43378 277-581): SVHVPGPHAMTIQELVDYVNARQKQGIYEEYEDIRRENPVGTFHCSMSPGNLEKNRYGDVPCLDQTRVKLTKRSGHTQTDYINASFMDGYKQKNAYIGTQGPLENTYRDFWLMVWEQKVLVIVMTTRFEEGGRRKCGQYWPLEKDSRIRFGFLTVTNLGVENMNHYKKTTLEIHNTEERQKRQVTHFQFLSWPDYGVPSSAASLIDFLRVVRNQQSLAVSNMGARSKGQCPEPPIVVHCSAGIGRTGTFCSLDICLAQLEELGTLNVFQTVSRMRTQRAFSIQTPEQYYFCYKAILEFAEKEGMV
Protocol: (§1) The purification and kinetic analyses of PTPN9 and DUSP9 (Ser277–581) were performed following methods described in the literature, with slight modifications. PAGE analysis data and enzyme kinetic constants are presented in Figure S1 and Table S1, respectively. Enzyme activity in the presence or absence of the compounds was measured using DiFMUP, a representative PTP fluorogenic substrate. First, the inhibitory effects of compounds 1–3 were evaluated using 50 µM PTPN9 and 20 µM DUSP9. There was an increase in the inhibitory activity of compound 1 for both enzymes as the number of CH2 units increased from 9 to 14 (Figure 2A,B).
(§2) Next, the IC50 values of the compounds, which induce a 50% inhibition of DiFMUP hydrolytic enzyme activity, were determined (Table 1). The IC50 values were determined from the dose–response enzyme inhibition curves of each compound. The dose–response curves for compounds 1e and 1f against PTPN9 and DUSP9, respectively, are presented in Figure 2C,D. Dose–response curves were also obtained for the other compounds (Figures S2 and S3).
(§3) The methods employed for PTP overexpression and purification have been described in a previous study. In brief, human PTPN9 and DUSP9 were cloned into a pET28a vector (Merk Millipore, Darmstadt, Germany) containing a hexahistidine (His6) tag or a maltose-binding protein (MBP) tag in its N-terminus (see Supplementary Materials). Recombinant genes were separately transformed into Escherichia coli Rosetta (DE3) (Merk Millipore, Darmstadt, Germany), and the overexpression of each gene was induced via the addition of 0.1 mM IPTG (Ducherfa Biochemie, Haarlem, RV, USA). After 16 h of incubation at 18 °C, cell pellets were obtained via centrifugation (3570× g at 4 °C for 15 min), resuspended in lysis buffer (50 mM Tris, pH: 7.5, 500 mM NaCl, 5% glycerol, 0.025% 2-mercaptoethanol, and 1 mM phenyl-methylsulfonyl fluoride (PMSF)), and lysed by ultrasonication. Subsequently, cell lysates were centrifuged at 29,820× g for 30 min at 4 °C; then, the supernatant was collected and incubated with a cobalt affinity resin (TALON® Metal Affinity Resin, Takara Korea, Seoul, Korea). After 1 h of incubation at 4 °C, the desired proteins were eluted by adding the lysis buffer supplemented with 100 mM imidazole. Samples were stored at –80 °C until use.
(§4) The enzymatic activities of purified PTPN9 and DUSP9 were measured using 6,8-difluoro-4-methylumbelliferyl phosphate (DiFMUP), the most widely used fluorogenic PTP substrate in the literature. To determine KM values, PTPN9 (0.15 nM) and DUSP9 (200 nM) were added to a reaction buffer (20 mM Bis-tris, pH: 7.0, 150 mM NaCl, 2.5 mM dithiothreitol (DTT), and 0.01% Triton X-100) containing DiFMUP (800, 400, 200, 100, 50, 25, 12.5, or 6.25 μM) in a 96-well black plate. The final reaction volume was 100 µL. The fluorescence intensity was continuously monitored for 10 min (Ex/Em = 355/460 nm) on a Victor™ X4 multilabel plate reader (Perkin Elmer, Norwalk, CT, USA). KM values were obtained using Lineweaver–Burk plots analysis.
(§5) To evaluate the enzyme inhibitory effects of GA and its analogs, 10 µl of the enzyme stock solution (1.5 nM PTPN9 and 2 µM DUSP9) in the reaction buffer was added into the mixture of DiFMUP (to a final concentration of 220 µM and 90 µM for PTPN9 and DUSP9, respectively) and each compound (to a final concentration of 50 µM and 20 µM for PTPN9 and DUSP9, respectively) was added to the reaction buffer. Enzyme activity was measured as described above. Half-inhibitory concentration (IC50) values were determined under similar conditions, except for the concentrations of the inhibitors (200, 100, 50, 25, 12.5, 6.25, or 3.125 µM for PTPN9 and 25, 12.5, 6.25, 3.125, 1.563, 0.782, or 0.391 µM for DUSP9). The dose-dependent curve was fitted to the four-parameter logistic regression equation, (y = a + (b – a)/(1 + (x/c)^d), to obtain IC50 values using the Kaleida Graph software Ver. 4.1.3. (Synergy Software Inc, PA, USA).

DUSP9 = molecular target: T2, DUSP9 (Homo sapiens, UniProt Q99956); test: DUSP9 enzyme inhibition with DiFMUP substrate; assay type: biochemical; details: DiFMUP 90 µM, DUSP9 200 nM; NA: no activity
T2 construct: made in house; host or cells: Escherichia coli Rosetta (DE3)
T2 sequence (Q99956 1-384): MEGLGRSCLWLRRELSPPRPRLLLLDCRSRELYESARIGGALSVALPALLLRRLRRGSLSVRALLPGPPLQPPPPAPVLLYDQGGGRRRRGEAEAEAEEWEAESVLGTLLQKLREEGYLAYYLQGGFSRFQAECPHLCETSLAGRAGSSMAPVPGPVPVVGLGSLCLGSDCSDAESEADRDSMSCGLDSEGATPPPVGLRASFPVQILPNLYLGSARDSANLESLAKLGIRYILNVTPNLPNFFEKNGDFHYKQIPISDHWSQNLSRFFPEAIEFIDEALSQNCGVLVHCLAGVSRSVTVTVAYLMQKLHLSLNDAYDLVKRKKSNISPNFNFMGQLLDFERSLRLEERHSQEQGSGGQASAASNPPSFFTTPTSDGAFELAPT
Protocol: as §1, §2, §3, §4, §5

[1] = test system: Akt phosphorylation in PA-induced insulin-resistant C2C12 cells; test: Palmitic acid-induced insulin resistance in C2C12 myotubes (p-Akt); assay type: cell-based, mouse; details: PA (250 µM, 16 h)-treated C2C12, 5 μM compound for 30 min with 100 nM insulin
Protocol: Since insulin plays an important role in regulating glucose metabolism through the redistribution of GLUT4 from intracellular vesicles to the cell surface, it is important to describe the interaction between 1e and insulin in the Akt pathway. […] Next, we evaluated the protective effects of 1e against PA-induced insulin resistance in C2C12 myotubes. To generate an insulin resistance model, C2C12 myotubes were treated with 250 µM PA in a serum-free medium for 16 h. Akt phosphorylation levels in PA-treated C2C12 cells decreased by 50% compared to levels in normal C2C12 cells (Figure 6C). Furthermore, in the presence of insulin and GA, Akt phosphorylation levels decreased only by 30% compared to levels in normal cells. […] In addition, the GA analogs induced no cytotoxic effects in C2C12 muscle cells (data not shown). […] The expression levels of glucose uptake-related proteins were determined via Western blotting, as previously described. In brief, differentiated 3T3-L1 cells were plated in six-well plates at a 1.5 × 10^4 cells/well density in a final volume of 2 mL. […] Secondary antibodies were added to the membranes at a concentration of 1:2000 for 1 h at room temperature, and immunoreactive bands were detected via ECL (GE Healthcare Korea Co., Ltd., Incheon, Korea). […]

- IC50 (PTPN9): 21.8 ± 0.45 µM
- IC50 (DUSP9): 3.64 ± 0.11 µM
Structure (SMILES): CCCCCCCCCCCCCc1cccc(O)c1C(=O)O [GA, Ginkgolic acid (C13:0), reference compound]
- decrease of Akt phosphorylation levels compared to normal cells [1]: 30%

Source: article PMC8999917, “Structure–Activity Relationship of Synthetic Ginkgolic Acid Analogs for Treating Type 2 Diabetes by PTPN9 Inhibition” (International Journal of Molecular Sciences, 2022)
